Tests used:
mouse FXR = biological target: T1, mouse FXR (Mus musculus, UniProt Q60641); assay: CV-1 transient transfection assay with natural promoters of FXR targets (hIBABP, hPLTP, hMRP-2); type: cell-based; settings: for activity on natural promoters / concentration of maximum efficacy: hIBABP, hPLTP, hMRP-2 promoters; for activation of IBABP promoter: hIBABP promoter
T1 construct: expressed in transfected cells; host or cells: CV-1 (monkey)
T1 sequence (Q60641 1-488): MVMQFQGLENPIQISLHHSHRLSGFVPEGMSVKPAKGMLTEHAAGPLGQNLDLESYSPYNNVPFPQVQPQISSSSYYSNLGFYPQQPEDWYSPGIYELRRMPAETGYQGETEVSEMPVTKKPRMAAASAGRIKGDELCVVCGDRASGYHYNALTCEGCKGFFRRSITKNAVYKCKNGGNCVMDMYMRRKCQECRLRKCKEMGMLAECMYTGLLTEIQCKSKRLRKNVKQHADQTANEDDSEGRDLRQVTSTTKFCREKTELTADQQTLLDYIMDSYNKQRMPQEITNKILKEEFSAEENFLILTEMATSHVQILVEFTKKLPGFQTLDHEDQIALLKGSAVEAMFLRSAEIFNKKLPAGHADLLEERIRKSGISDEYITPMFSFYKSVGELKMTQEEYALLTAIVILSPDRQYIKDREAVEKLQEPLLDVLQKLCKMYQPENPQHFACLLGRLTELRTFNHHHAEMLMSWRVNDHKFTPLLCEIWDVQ
T1 sequence (P19793 1-462 partner): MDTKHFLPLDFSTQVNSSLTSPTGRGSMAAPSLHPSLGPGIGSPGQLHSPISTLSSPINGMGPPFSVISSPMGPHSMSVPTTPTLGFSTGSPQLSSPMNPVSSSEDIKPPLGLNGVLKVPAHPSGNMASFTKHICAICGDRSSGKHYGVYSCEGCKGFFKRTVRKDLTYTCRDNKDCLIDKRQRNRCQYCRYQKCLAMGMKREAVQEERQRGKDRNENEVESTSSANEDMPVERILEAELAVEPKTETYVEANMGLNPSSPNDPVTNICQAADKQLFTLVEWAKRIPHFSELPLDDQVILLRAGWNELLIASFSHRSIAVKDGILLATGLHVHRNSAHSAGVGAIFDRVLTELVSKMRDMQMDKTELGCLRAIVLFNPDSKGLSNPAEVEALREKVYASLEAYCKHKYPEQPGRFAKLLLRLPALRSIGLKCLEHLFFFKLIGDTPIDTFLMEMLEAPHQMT
Experimental: FIGS. 2A-2F collectively show the results of ligand activation of CV-1 cells co-transfected with FXR constructs pCMX-mFXR and pCMX-hRXR and a luciferase reporter gene containing various promoters as follows: FIG. 2A with a minimal TK promoter, FIG. 2B with a TK-ECRE*6 promoter, FIG. 2C with a TK-ER8*2 promoter, FIG. 2D with HIBABP promoter, FIG. 2E with a hPLTP promoter, or FIG. 2 with a FhMRP-2 promoter.
(§1) For transfection of these constructs, monkey CV-1 HEPG2 and HEK293T cells were grown in DMEM supplemented with 10% FBS, 50 U/ml penicillin G, and 50 μg/ml streptomycin sulfate at 37° C. in 7% CO2. CV-1 cells (60%-70% confluence, 48-well plate) were cotransfected with 16.6 ng of the appropriate expression vector, 100 ng of reporter plasmid, and 100 ng of pCMX-LacZ in 200 μl of DMEM containing 10% FBS by the N-[1-(2,3-dioleoyloxy)propyl]-N,N,N-trimethylammonium methylsulfate (DOTAP)-mediated procedure. After 24 hr, the medium was replaced, and cells were harvested and assayed for luciferase activity 36-48 hr after transfection. The luciferase activity was normalized to the level of β-galactosidase activity. Each transfection was performed in triplicate and repeated at least three times.
For this study, the following gene promoters were used: intestinal bile acid binding protein (IBABP; see, for example, Grober et al. (1999). Identification of a bile acid-responsive element in the human ileal bile acid-binding protein gene. Involvement of the farnesoid X receptor/9-is-retinoic acid receptor heterodimer. J Biol Chem. 274(42), 29749-54>, phospholipid transfer protein (PLTP) (Urizar et al (2000). The farnesoid X-activated receptor mediates bile acid activation of phospholipid transfer protein gene expression. J Biol Chem. 275(50), 39313-7) and multidrug resistance related protein 2 (MRP-2) (Kast et al. (2002), supra), which are all well characterized targets of FXR. The natural promoters of both the IBABP and PLTP genes contain one copy of an inverted repeat with a one base spacing (IR-1) while MRP-2 contains an ER-8 element. […] The most robust activation (28-fold) was seen on the IBABP promoter. Less robust (2-3 fold) but specific activation was observed on the PLTP and MRP-2 promoters.

GAL4-FXR LBD = biological target: T2, GAL4-FXR LBD (Rattus norvegicus, UniProt Q62735); assay: GAL4 DBD-FXR LBD chimeric receptor transcriptional activation assay (with/without RXR); type: cell-based; settings: for activation of chimeric FXR construct: in the presence and absence of RXR; for selectivity for FXR relative to other NHRs: chimeric NHR constructs; for efficacy compared with GW4064: in the absence of RXR
T2 construct: expressed in transfected cells; host or cells: CV-1 (monkey)
T2 sequence (Q62735 245-469 limits assumed): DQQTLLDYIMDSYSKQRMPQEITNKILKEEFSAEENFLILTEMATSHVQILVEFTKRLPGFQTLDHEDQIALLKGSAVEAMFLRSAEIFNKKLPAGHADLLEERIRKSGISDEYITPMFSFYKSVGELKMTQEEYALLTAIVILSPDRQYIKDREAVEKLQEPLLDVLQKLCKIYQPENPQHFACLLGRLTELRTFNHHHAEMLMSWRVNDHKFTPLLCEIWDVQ
Experimental: FIGS. 3A-3E collectively show the results of ligand activation of CV-1 cells co-transfected with a luciferase reporter gene with a variety of receptor expression constructs. […] FIGS. 3C-3E show the results of CV-1 cells transiently transfected with the indicated reporter constructs, treated with either DMSO or 10 μM of the compounds fexaramine (3C), fexarine (3D), fexarene (3E). Reporter activity was normalized to the internal control and the data plotted as fold activation relative to untreated cells. All transfections contained CMX-βgal as an internal control.
The expression plasmids pCMX, pCMX-LacZ, pCMX-mFXRFL, pCMX-hRXRFL, pCMX-GALDBD-rFXRLBD and other pCUX-GALDBD-NR LBDs (hRXRα, hPPARαγδ, mPXR, hPXR, hLXRα, HTRβ, hRARβ, mCAR, mERR3 and hVDR) have been described elsewhere (Blumberg et al. (1998). SXR, a novel steroid and xenobiotic-sensing nuclear receptor. Genes Dev. 12(20), 3195-205). The reporter plasmids pMH2004-TK-luc, pTKECRE*6-luc, pTKER-8*2-luc and pMRP-2-luc also have been described elsewhere. The hPLTP-luc promoter was kindly provided by Dr Dennis Dowhan and the hIBABP-luc promoter was created from a plasmid provided by Dr Philippe Besnard.
as §1
Cell-based transcriptional activation assays using chimeric nuclear hormone receptor (NHR) constructs were established to measure the selectivity of the compounds to FXR relative to other NHRs (Forman et al. (1995). Identification of a nuclear receptor that is activated by farnesol metabolites. Cell 81, 687-693). These assays used fusion proteins with the yeast GAL4 DNA binding domain connected to the ligand-binding domain (LBD) of NHRs. These constructs were co-transfected with a thymidine kinase C minimal promoter reporter vector containing four copies of the GAL4 binding site. Titration experiments were then performed using the identified compounds. […] Addition of RXR had no effect on the activation potential of fexaramine, fexarine, fexarene in this assay.

Structure (SMILES) | activity on natural promoters (mouse FXR) | activation of chimeric FXR construct (GAL4-FXR LBD) | activation of IBABP promoter (mouse FXR) [fold] | concentration of maximum efficacy (mouse FXR) [µM] | effect of addition of RXR on activation potential (GAL4-FXR LBD) | selectivity for FXR relative to other NHRs (GAL4-FXR LBD) | efficacy compared with GW4064 (GAL4-FXR LBD)
COC(=O)/C=C/c1cccc(N(Cc2ccc(-c3ccccc3OC)cc2)C(=O)C(C)C)c1 [SRI-1] | little or no activity | little or no activity |  |  |  |  | 
CC(C)c1onc(-c2c(Cl)cccc2Cl)c1COc1ccc(/C=C/c2cccc(C(=O)O)c2)c(Cl)c1 [GW4064, reference compound] |  | activate | 28 | 1 |  |  | 
COC(=O)/C=C/c1cccc(N(Cc2ccc(-c3ccc4c(c3)OCO4)cc2)C(=O)C2CCCCC2)c1 [fexarine] |  | activate | 28 | 1 | no effect | highly selective for FXR | more efficacious ligands for FXR than GW4064
COC(=O)/C=C/c1cccc(N(Cc2ccc(-c3ccc(N(C)C)cc3)cc2)C(=O)C2CCCCC2)c1 [fexaramine] |  | activate | 28 | 1 | no effect | highly selective for FXR | more efficacious ligands for FXR than GW4064
COC(=O)/C=C/c1cccc(N(Cc2ccc(-c3ccc(C(C)(C)C)cc3)cc2)C(=O)C(C)C)c1 [SRI-2] | little or no activity | little or no activity |  |  |  |  | 
COC(=O)/C=C/c1cccc(N(Cc2ccc(/C=C/c3ccccc3)cc2)C(=O)C2CCCCC2)c1 [fexarene] |  | activate | 28 | 1 | no effect | highly selective for FXR | more efficacious ligands for FXR than GW4064

Source: patent publication US7647217B2, “Structure of the farnesoid X receptor ligand binding domain and methods of use therefor” (The Salk Institute for Biological Studies, priority 2002, dated 2010)
